Assay results as given in article PMC11249646, “Small-Molecule Disruptors of the Interaction between Calcium- and Integrin-Binding Protein 1 and Integrin αIIbβ3 as Novel Antiplatelet Agents” (ACS Pharmacology & Translational Science, 2024).
Read-outs that look alike come from different tables or passages of the source.

Columns and labels:
Format in all cases: binding
[1] = target: T1, CIB1 and αIIb interaction (GST-CIB1 : F-αIIb peptide) (Homo sapiens, UniProt Q99828); assay: FP assay, 384-well format (screen); design: 384-well SCREEN Efficacy (%): concentration or dose not given beside the values; conditions: for IC50: read-out: 384-well SCREEN IC50
T1 construct: made in house; host or cells: BL-21 plus RIL cells (E. coli)
T1 sequence (Q99828 1-191): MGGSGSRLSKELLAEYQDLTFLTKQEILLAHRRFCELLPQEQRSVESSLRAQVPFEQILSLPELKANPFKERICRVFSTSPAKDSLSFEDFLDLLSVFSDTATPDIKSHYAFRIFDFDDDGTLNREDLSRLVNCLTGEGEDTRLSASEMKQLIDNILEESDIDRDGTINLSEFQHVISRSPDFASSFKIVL

[2] = target: T2, GST-CIB1 : F-scrambled peptide (Homo sapiens, UniProt Q99828); assay: FP scrambled-peptide counter screen, 384-well format; conditions: for IC50: read-out: 384-well COUNTERSCREEN IC50; for 384-well COUNTERSCREEN Confirm?: *: Curve in opposite direction
T2 construct: made in house; host or cells: BL-21 plus RIL cells (E. coli)
T2 sequence (Q99828 1-191): T1 sequence (Q99828 1-191)

[3] = target: T3, CIB1 and αIIb interaction (CIB1-GST : F-αIIb peptide) (Homo sapiens, UniProt Q99828); assay: FP assay, 1536-well qHTS format (primary and confirmatory screen); conditions: for CONFIRMATORY SCREEN Confirm?: YES/NO call; for CONFIRMATORY SCREEN Curve Class: qHTS curve class
T3 construct: made in house; host or cells: BL-21 plus RIL cells (E. coli)
T3 sequence (Q99828 1-191): T1 sequence (Q99828 1-191)

[4] = target: T2, GST-CIB1 : F-scrambled peptide; assay: FP scrambled-peptide counter screen, 1536-well format; conditions: scrambled-peptide counterscreen; for COUNTERSCREEN Confirm?: YES/NO call; for IC50: read-out: COUNTERSCREEN IC50; for COUNTERSCREEN Curve Class: qHTS curve class
[5] = confirmatory screen, negative sign = inhibitory curve
[6] = confirmatory screen, negative = inhibition
[7] = confirmatory screen, read-out: CONFIRMATORY SCREEN IC50
[8] = qHTS primary screen hits, Table S2, negative = inhibition
[9] = qHTS primary screen hits, Table S2, negative sign = inhibitory curve, several classes where COUNT > 1
[10] = qHTS primary screen hits, Table S2, read-out: IC50

| SMILES | 384-well SCREEN Efficacy (%) ([1]; F-αIIb peptide) | IC50 ([1]; F-αIIb peptide) | 384-well COUNTERSCREEN Efficacy (%) ([2]; F-scrambled peptide) | IC50 ([2]; F-scrambled peptide) | CONFIRMATORY SCREEN Confirm? ([3]; confirmatory screen) | CONFIRMATORY SCREEN Curve Class [3, 5] | CONFIRMATORY SCREEN Efficacy (%) [3, 6] | IC50 [3, 7] | Efficacy (%) [3, 8] | Curve Class [3, 9] | IC50 [3, 10] | COUNTERSCREEN Efficacy (%) [4] | COUNTERSCREEN Confirm? [4] | IC50 [4] | 384-well SCREEN Confirm? ([1]; F-αIIb peptide, YES/NO) | 384-well COUNTERSCREEN Confirm? ([2]; F-scrambled peptide) | COUNTERSCREEN Curve Class [4] | further results |
| --- | --- | --- | --- | --- | --- | --- | --- | --- | --- | --- | --- | --- | --- | --- | --- | --- | --- | --- |
| Oc1c(Cl)cc(Cl)c(Cl)c1Cc1c(O)c(Cl)cc(Cl)c1Cl [NCGC00091195-08] | 55% | > 120 µM | 205% | 31.6 µM | YES | -1.4 | -38% | 7.1 µM | -59% | -2.2 | 50.1 µM | 106% | YES | 89.1 µM | – | – | – | – |
| Brc1c(Br)c(Br)c2[nH]nnc2c1Br [NCGC00092352-04, 4,5,6,7-tetrabromobenzotriazole, reference compound] | 40% | 4.7 µM | 35% | > 120 µM | YES | -1.2 | -43% | 2.8 µM | – | – | – | 79% | YES | 79.4 µM | YES | YES | 3 | IC50 ([3]; 1536-well qHTS of 14,782 compounds, read-out: intraplate control IC50): ~10.7 µM; IC50 ([3]; 1536-well, LOPAC1280 pilot screen, 0.85 μM GST-CIB1, 100 nM F-αIIb, RT 15 minutes): double-digit micromolar inhibitor; Efficacy (%) ([3]; qHTS FP screen hits, Table S2, negative = inhibition): -49%; Curve Class ([3]; qHTS FP screen hits, Table S2, one class per curve where COUNT > 1, negative sign = inhibitory curve): -1.2; IC50 ([3]; qHTS FP screen hits, Table S2, read-out: IC50): 14.1 µM |
| CN1CCCN=C1/C=C/c1cccs1.O=C(O)c1cc2ccccc2c(Cc2c(O)c(C(=O)O)cc3ccccc23)c1O [NCGC00094552-04] | 24% | – | 40% | – | YES | -2.4 | -39% | – | -25% | -2.4 | – | 0% | YES | – | – | – | 4 | – |
| CCCCCc1c2c(cc(O)c1C(=O)O)OC(=O)c1c(cc(OC)cc1C(=O)CCCC)O2.O=C(O)C(F)(F)F [NCGC00095570-05] | 38% | 8.9 µM | 58% | 50.1 µM | YES | -1.2 | -60% | 11.2 µM | -33% | -1.4 | 12.6 µM | -14% | YES | – | YES | YES | 4 | – |
| Nc1c(S(=O)(=O)[O-])cc(Nc2ccc(Nc3nc(Cl)nc(Nc4ccc(S(=O)(=O)O)cc4)n3)c(S(=O)(=O)O)c2)c2c1C(=O)c1ccccc1C2=O.[Na+] [NCGC00162329-02] | 60% | 1 µM | 60% | 1.3 µM | – | – | – | – | -64% | – | 1.4 µM | – | – | – | YES | – | – | Curve Class ([3]; qHTS primary screen hits, Table S2, negative sign = inhibitory curve): -1.2 |
| O=[N+]([O-])c1ccc2c(c1)S(=O)(=O)C=C2 [NCGC00167848-02] | – | 120 µM | – | > 120 µM | – | – | – | – | – | – | 0.7 µM | – | – | – | – | – | – | 384-well SCREEN Confirm? [1]: YES; 384-well SCREEN Efficacy (%) [1]: 50%; 384-well COUNTERSCREEN Efficacy (%) [2]: 45%; Curve Class [3]: -1.4; Efficacy (%) [3]: -37% |
